We go through eight compounds from EP4389749A1, “SUBSTITUTED 3,7-DIHYDRO-1H-PURINE-2,6-DIONES AND USE THEREOF” (invIOs GmbH, priority 2022, dated 2024).

In assay [1] the test system is CD4+ T-cells. Briefly: Immunostimulation assay with anti-CD3/28 stimulated T-cells, CD69 expression by flow cytometry. It is filed as cell-based, human. As to conditions: T-cell; purified human CD4+ and CD8+ T-cells, 1 µg/ml anti-CD3, 1 µg/ml anti-CD28, 16 hours, surface FACS; read-out: EC50 CD4+. In a few lines: (§1)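 Human CD4+/CD8+ T-cells purified from buffy-coat PBMCs were stimulated with 1 µg/ml anti-CD3 and 1 µg/ml anti-CD28 plus compound (0.001–30 µM) for 16 h at 37 °C. CD69 measured by flow cytometry; DMSO set minimal, CD3/28 Dynabeads maximal activation; EC50 by variable-slope fit.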
A general note: Flow cytometry measures light scatter and fluorescence of single cells or particles in a stream.

The subject of assay [2] is CD8+ T-cells. The description is as above. The conditions noted are these: T-cell; purified human CD4+ and CD8+ T-cells, 1 µg/ml anti-CD3, 1 µg/ml anti-CD28, 16 hours, surface FACS; read-out: EC50 CD8+. The class given is cell-based, human. The method, boiled down:
as §1

Assay [3] concerns B16-SIY melanoma. As to the kind of experiment: Efficacy on B16-SIY melanoma, in vivo tumor growth. The conditions noted are these: p.o., over the course of 21 days, C57BL/6 mice, B16-SIY intradermal. How it is done:
Eight-weeks-old C57BL/6 mice were purchased from Charles River. All animal experiments were in accordance with institutional guidelines of the Research Institute of Molecular Pathology (Austria) and approved according to the European Community rules of animal care with the permission of the Austrian Ministry of Science.
B16-SIY melanoma cells were cultured in DMEM containing 10 % FCS, 1 % PenStrep and 1 % glutamine and grown in a humidified incubator at 37 °C and 5 % CO2. For tumor inoculations sub-confluent B16-SIYcells were trypsinized, washed, counted and resuspended in PBS to a final concentration of 1×10^7 B16-SIY cells/ml.
30 C57BL/6 mice were inoculated intradermally with 1×10^6 B16-SIY cells and tumor bearing mice randomly assigned to 3 different groups […] post transplantation: Compound 142 30 mg/kg 3 days post B16-SIY inoculation and subsequent daily administration of 10 mg/kg (10 mice), Compound 142 9 mg/kg 3 days post B16-SIY inoculation and subsequent daily treatment of 3 mg/kg (10 mice), or vehicle control (10 mice). Compound 142 was diluted in 10 % DMSO, 20 % PEG400, 21 % HPbCD, 0.35 % HPMC and 48.65 % H2O and mice treated p.o. with 2 different treatment schedules: d3: 30 mg/kg + QD: 10 mg/kg or d3: 9 mg/kg + QD: 3 mg/kg (Figure 1). […] Tumors were measured daily and mice sacrificed 21 days post B16-SIY inoculation (Figure 1). […]

For orientation: EC50 means the concentration at which the effect is half-maximal. Turning to `CC(O)Cn1c(=O)[nH]c(=O)c2c1nc(-c1ccc(Oc3ccc(OC(F)(F)F)cc3)cc1)n2C` (stereo not drawn) [Compound 142, 3-(2-hydroxypropyl)-7-methyl-8-(4-(4-(trifluoromethoxy)phenoxy)phenyl)-3,7-dihydro-1H-purine-2,6-dione], the EC50 in assay [1] and in assay [2] was 500 to 1000 nM throughout. For the same compound, the “Tumor volumes compared to vehicle control” value in assay [3] (d3: 9 mg/kg + QD: 3 mg/kg) and in assay [3] (d3: 30 mg/kg + QD: 10 mg/kg) was “significantly reduced” each time.

Turning to `CC(O)Cn1c(=O)[nH]c(=O)c2c1nc(-c1ccc(Oc3ccc(OC(F)(F)F)c(Cl)c3)cc1)n2C` (stereo not drawn) [Compound 194, 8-(4-(3-chloro-4-(trifluoromethoxy)phenoxy)phenyl)-3-(2-hydroxypropyl)-7-methyl-3,7-dihydro-1H-purine-2,6-dione], the EC50 was 100 to 500 nM in assay [1] and 500 to 1000 nM in assay [2].

As to `CC(O)Cn1c(=O)[nH]c(=O)c2c1nc(-c1ccc(Oc3ccc(F)c(C(F)(F)F)c3)cc1)n2C` (stereo not drawn) [Compound 195, 8-(4-(4-fluoro-3-(trifluoromethyl)phenoxy)phenyl)-3-(2-hydroxypropyl)-7-methyl-3,7-dihydro-1H-purine-2,6-dione], the EC50 in assay [1] and in assay [2] was 1000 to 5000 nM each time.

Turning to `COc1cc(-c2nc3c(c(=O)[nH]c(=O)n3CC(C)O)n2C)ccc1Oc1ccc(OC(F)(F)F)cc1` (stereo not drawn) [Compound 196, 3-(2-hydroxypropyl)-8-(3-methoxy-4-(4-(trifluoromethoxy)phenoxy)phenyl)-7-methyl-3,7-dihydro-1H-purine-2,6-dione], the EC50 in assay [1] and in assay [2] was 1000 to 5000 nM in each case.

As to `Cn1c(-c2ccc(OCc3ccccc3)c(OC(F)(F)F)c2)nc2c1c(=O)[nH]c(=O)n2CC(CO)C(F)F` (stereo not drawn) [Compound 198, 8-(4-(benzyloxy)-3-(trifluoromethoxy)phenyl)-3-(3,3-difluoro-2-(hydroxymethyl)propyl)-7-methyl-3,7-dihydro-1H-purine-2,6-dione], the EC50 in assay [1] was below 100 nM; in assay [2], 100 to 500 nM.

With `Cn1c(-c2ccc(OCc3ccccc3)c(OC(F)(F)F)c2)nc2c1c(=O)[nH]c(=O)n2CC(O)C(F)F` (stereo not drawn) [Compound 199, 8-(4-(benzyloxy)-3-(trifluoromethoxy)phenyl)-3-(3,3-difluoro-2-hydroxypropyl)-7-methyl-3,7-dihydro-1H-purine-2,6-dione], the EC50 in assay [1] and in assay [2] was below 100 nM throughout.

On to `CC(O)Cn1c(=O)[nH]c(=O)c2c1nc(-c1ccc(OCCc3ccccc3)c(F)c1)n2C` (stereo not drawn) [Compound 200, 8-(3-fluoro-4-phenethoxyphenyl)-3-(2-hydroxypropyl)-7-methyl-3,7-dihydro-1H-purine-2,6-dione], for which the values for the EC50 in assay [1] and in assay [2] were 500 to 1000 nM and 100 to 500 nM, respectively.

As for `CC(O)Cn1c(=O)[nH]c(=O)c2c1nc(-c1ccc(OCCCc3ccccc3)c(F)c1)n2C` (stereo not drawn) [Compound 201, 8-(3-fluoro-4-(3-phenylpropoxy)phenyl)-3-(2-hydroxypropyl)-7-methyl-3,7-dihydro-1H-purine-2,6-dione], the EC50 in assay [1] and in assay [2] was 100 to 500 nM each time.
